What all share (format): biochemical
The target in one assay is KAT5 Full length enzyme (Homo sapiens (Human), UniProt Q92993). Nature of the assay: KAT5 assay (SAMDI-MS acetylation of H4 1-21 peptide). As to conditions: Morrison equation fit; replicate number in parentheses; read-out: KAT5 Ki (nM) (replicate number).
The target of assay [1] is KAT7+JADE1+EAF6+ING5 4 protein complex (Homo sapiens (Human), UniProt O95251). Description: KAT7 JADE1 assay (SAMDI-MS acetylation of H3 1-21 peptide). As to conditions: replicate number in parentheses.
The next assay addresses KAT8 Full length enzyme (Homo sapiens (Human), UniProt Q9H7Z6). Nature of the assay: KAT8 assay (SAMDI-MS acetylation of H3 1-21 peptide). As to conditions: replicate number in parentheses.
Another assay addresses KAT6A Full length enzyme (Homo sapiens (Human), UniProt Q92794). Nature of the assay: KAT6A assay (SAMDI-MS acetylation of H3 1-21 peptide). As to conditions: replicate number in parentheses.
The mark [2] stands for this setting: Morrison equation fit, read-out: KAT7 JADE1 Ki (nM) (replicate number).
The mark [3] stands for this setting: Morrison equation fit, read-out: KAT8 Ki (nM) (replicate number).
Setting [4] is: Morrison equation fit, read-out: KAT6A Ki (nM) (replicate number).

Molecules are shown by their SMILES. Read-outs that look alike come from different tables or passages of the source. A value given as a limit tells only on which side of the number the result lay.

Sequence of KAT8 Full length enzyme (Q9H7Z6 whole entry): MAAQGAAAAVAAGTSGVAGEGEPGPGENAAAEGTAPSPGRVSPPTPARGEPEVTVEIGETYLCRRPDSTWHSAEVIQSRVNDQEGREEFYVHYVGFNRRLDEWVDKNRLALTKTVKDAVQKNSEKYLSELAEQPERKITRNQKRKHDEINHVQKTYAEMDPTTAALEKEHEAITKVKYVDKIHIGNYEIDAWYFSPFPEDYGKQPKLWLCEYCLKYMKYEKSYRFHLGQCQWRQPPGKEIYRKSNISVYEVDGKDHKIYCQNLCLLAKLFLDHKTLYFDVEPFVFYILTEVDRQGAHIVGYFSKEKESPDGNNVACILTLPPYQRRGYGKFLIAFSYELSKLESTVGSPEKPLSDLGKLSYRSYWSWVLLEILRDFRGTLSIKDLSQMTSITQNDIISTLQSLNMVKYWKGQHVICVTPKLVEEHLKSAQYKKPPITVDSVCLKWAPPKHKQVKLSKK
Sequence of KAT5 Full length enzyme (Q92993 whole entry): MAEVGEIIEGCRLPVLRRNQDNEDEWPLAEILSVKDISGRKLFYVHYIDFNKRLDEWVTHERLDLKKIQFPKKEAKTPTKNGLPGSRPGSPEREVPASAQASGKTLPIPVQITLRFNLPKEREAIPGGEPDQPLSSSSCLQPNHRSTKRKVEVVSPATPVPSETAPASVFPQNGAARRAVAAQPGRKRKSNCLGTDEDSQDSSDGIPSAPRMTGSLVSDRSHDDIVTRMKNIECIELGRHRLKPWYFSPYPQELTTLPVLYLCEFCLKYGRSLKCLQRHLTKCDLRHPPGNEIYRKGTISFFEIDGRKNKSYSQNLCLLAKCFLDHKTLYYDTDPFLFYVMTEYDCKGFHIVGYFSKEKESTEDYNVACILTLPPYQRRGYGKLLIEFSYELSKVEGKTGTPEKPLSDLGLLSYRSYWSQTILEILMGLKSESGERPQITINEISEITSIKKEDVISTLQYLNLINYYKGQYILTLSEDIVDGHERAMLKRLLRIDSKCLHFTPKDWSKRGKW
Sequence of KAT6A Full length enzyme (Q92794 other isoform, or with tags, fused parts or gaps): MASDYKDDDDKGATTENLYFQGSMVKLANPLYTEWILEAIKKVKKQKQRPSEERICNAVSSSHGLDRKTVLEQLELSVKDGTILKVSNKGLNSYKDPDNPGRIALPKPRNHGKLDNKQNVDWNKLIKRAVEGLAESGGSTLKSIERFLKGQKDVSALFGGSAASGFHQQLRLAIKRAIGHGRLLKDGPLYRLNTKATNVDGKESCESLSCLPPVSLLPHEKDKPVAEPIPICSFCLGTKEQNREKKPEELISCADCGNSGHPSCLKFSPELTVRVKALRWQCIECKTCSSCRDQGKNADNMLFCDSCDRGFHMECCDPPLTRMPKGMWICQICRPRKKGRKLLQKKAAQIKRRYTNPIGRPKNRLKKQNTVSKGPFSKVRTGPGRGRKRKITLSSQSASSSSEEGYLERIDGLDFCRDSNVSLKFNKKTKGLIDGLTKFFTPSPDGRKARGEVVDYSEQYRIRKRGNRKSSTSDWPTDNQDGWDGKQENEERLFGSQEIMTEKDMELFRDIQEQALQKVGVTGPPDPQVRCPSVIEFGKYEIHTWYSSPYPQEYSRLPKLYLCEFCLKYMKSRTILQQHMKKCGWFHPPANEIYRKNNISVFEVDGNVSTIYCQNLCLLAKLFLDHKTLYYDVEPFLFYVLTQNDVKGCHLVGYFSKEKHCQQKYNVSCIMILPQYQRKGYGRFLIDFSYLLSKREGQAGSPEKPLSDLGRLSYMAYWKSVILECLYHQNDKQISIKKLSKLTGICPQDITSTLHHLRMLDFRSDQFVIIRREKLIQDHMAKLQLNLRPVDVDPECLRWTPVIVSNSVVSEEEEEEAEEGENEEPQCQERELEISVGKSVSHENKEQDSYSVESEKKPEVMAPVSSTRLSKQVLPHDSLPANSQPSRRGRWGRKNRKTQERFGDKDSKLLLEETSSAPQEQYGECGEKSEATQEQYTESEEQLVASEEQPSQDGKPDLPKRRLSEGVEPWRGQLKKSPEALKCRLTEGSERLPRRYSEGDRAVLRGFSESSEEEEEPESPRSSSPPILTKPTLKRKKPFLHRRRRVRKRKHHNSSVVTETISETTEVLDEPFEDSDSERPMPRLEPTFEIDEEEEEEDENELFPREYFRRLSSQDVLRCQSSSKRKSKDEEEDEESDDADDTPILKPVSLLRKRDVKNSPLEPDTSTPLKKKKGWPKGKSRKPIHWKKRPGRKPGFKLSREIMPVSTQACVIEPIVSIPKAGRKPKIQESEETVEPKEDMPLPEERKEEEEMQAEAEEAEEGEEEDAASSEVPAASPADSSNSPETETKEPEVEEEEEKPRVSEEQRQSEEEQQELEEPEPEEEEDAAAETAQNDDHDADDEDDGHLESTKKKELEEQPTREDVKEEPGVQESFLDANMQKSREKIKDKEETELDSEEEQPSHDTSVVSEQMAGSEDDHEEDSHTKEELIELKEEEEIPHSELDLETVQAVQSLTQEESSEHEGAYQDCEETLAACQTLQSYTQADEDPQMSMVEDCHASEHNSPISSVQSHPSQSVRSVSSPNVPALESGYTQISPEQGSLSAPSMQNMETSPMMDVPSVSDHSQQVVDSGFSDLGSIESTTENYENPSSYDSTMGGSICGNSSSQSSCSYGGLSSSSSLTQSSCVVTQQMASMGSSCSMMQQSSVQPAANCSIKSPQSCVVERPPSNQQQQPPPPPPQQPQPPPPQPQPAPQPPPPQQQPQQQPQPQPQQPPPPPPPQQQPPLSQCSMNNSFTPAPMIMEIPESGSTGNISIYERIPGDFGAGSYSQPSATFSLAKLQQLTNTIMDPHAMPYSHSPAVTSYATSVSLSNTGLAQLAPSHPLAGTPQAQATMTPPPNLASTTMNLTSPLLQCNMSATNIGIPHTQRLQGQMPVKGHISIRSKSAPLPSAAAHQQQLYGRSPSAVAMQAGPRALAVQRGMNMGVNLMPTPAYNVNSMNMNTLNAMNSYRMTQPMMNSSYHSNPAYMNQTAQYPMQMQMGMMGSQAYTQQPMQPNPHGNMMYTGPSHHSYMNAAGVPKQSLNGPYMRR

With `COc1cc2c(NS(=O)(=O)c3c(OC)cccc3OC)noc2cc1Nc1cc([C@H]2CC2(F)F)[nH]n1` (single isomer, unassigned) [Example 68, N-(6-{[5-(2,2-difluorocyclopropyl)-1H-pyrazol-3-yl]amino}-5-methoxy-1,2-benzoxazol-3-yl)-2,6-dimethoxybenzene-1-sulfonamide], the inhibitory constant (Ki) – broadly, a measure of affinity in units of concentration, obtained from inhibition or displacement – was 39.3 nM on KAT5 Full length enzyme, 16.8 nM in assay [1] (setting [2]), 4130 nM at KAT8 Full length enzyme (setting [3]) and 1.2 nM at KAT6A Full length enzyme (setting [4]).
Consider `COc1cc2c(NS(=O)(=O)c3c(OC)cccc3OC)noc2cc1Nc1cc([C@@H]2CC2(F)F)[nH]n1` (single isomer, unassigned) [Example 69, N-(6-{[5-(2,2-difluorocyclopropyl)-1H-pyrazol-3-yl]amino}-5-methoxy-1,2-benzoxazol-3-yl)-2,6-dimethoxybenzene-1-sulfonamide], for which the Ki on KAT5 Full length enzyme is more than 50000 nM; in assay [1] (setting [2]), more than 29000 nM; on KAT8 Full length enzyme (setting [3]) it was more than 13000 nM; at KAT6A Full length enzyme (setting [4]) it was more than 3290 nM.
`COc1cc2c(NS(=O)(=O)c3c(OC)cccc3OC)noc2cc1Nc1cc([C@H](C)O)n[nH]1` (single isomer, unassigned) [Example 86, N-(6-{[3-(1-hydroxyethyl)-1H-pyrazol-5-yl]amino}-5-methoxy-1,2-benzoxazol-3-yl)-2,6-dimethoxybenzene-1-sulfonamide]: the Ki at KAT5 Full length enzyme was 1280 nM; in assay [1] (setting [2]) it was 552 nM; at KAT8 Full length enzyme (setting [3]), more than 13000 nM; at KAT6A Full length enzyme (setting [4]), 8.9 nM.
On the same counts, the results for `COc1cc2c(NS(=O)(=O)c3c(OC)cccc3OC)noc2cc1Nc1cc([C@@H](C)O)n[nH]1` (single isomer, unassigned) [Example 87, N-(6-{[3-(1-hydroxyethyl)-1H-pyrazol-5-yl]amino}-5-methoxy-1,2-benzoxazol-3-yl)-2,6-dimethoxybenzene-1-sulfonamide] are 1800 nM, 1230 nM, more than 13000 nM and 23.5 nM.
`COc1cc2c(NS(=O)(=O)c3c(OC)cccc3OC)noc2cc1Nc1cc2n(n1)CC[C@@H]2C` (single isomer, unassigned) [Example 89, 2,6-dimethoxy-N-(5-methoxy-6-{[4-methyl-5,6-dihydro-4H-pyrrolo[1,2-b]pyrazol-2-yl]amino}-1,2-benzoxazol-3-yl)benzene-1-sulfonamide]: the inhibitory constant (Ki) at KAT5 Full length enzyme is 168 nM; in assay [1] (setting [2]) it was 39.3 nM; on KAT8 Full length enzyme (setting [3]), more than 12200 nM; at KAT6A Full length enzyme (setting [4]), 3 nM.
On the same counts, the results for `COc1cc2c(NS(=O)(=O)c3c(OC)cccc3OC)noc2cc1Nc1cc2n(n1)CC[C@H]2C` (single isomer, unassigned) [Example 90, 2,6-dimethoxy-N-(5-methoxy-6-{[4-methyl-5,6-dihydro-4H-pyrrolo[1,2-b]pyrazol-2-yl]amino}-1,2-benzoxazol-3-yl)benzene-1-sulfonamide] are 251 nM, 62.4 nM, more than 13000 nM and 3.4 nM.
As to `COc1cc2c(NS(=O)(=O)c3c(OC)cc(C4CCCCO4)cc3OC)noc2cc1Nc1cc(C2CC2)n[nH]1` (single isomer, unassigned) [Example 143, N-{6-[(3-cyclopropyl-1 H-pyrazol-5-yl)amino]-5-methoxy-1,2-benzoxazol-3-yl}-2,6-dimethoxy-4-(oxan-2-yl)benzene-1-sulfonamide], the Ki was 44.3 nM at KAT5 Full length enzyme, 9.6 nM in assay [1] (setting [2]), 436 nM on KAT8 Full length enzyme (setting [3]) and 1.1 nM at KAT6A Full length enzyme (setting [4]).
For `COc1cc2c(NS(=O)(=O)c3c(OC)cc(C4CCN(C)C4)cc3OC)noc2cc1Nc1cc(C2CC2)n[nH]1` (single isomer, unassigned) [Example 148, N-{6-[(3-cyclopropyl-1 H-pyrazol-5-yl)amino]-5-methoxy-1,2-benzoxazol-3-yl}-2,6-dimethoxy-4-(1-methylpyrrolidin-3-yl)benzene-1-sulfonamide], the Ki stood at 78.1 nM at KAT5 Full length enzyme, 3.6 nM in assay [1] (setting [2]), 575 nM on KAT8 Full length enzyme (setting [3]) and 1.1 nM on KAT6A Full length enzyme (setting [4]).
Turning to `COc1cc2c(NS(=O)(=O)c3c(OC)cc(C4CN(C)CCO4)cc3OC)noc2cc1Nc1cc(C2CC2)n[nH]1` (single isomer, unassigned) [Example 152, N-{6-[(3-cyclopropyl-1 H-pyrazol-5-yl)amino]-5-methoxy-1,2-benzoxazol-3-yl}-2,6-dimethoxy-4-(4-methylmorpholin-2-yl)benzene-1-sulfonamide], the Ki turned out to be 105 nM at KAT5 Full length enzyme, 4.1 nM in assay [1] (setting [2]), 1160 nM at KAT8 Full length enzyme (setting [3]) and 0.7 nM on KAT6A Full length enzyme (setting [4]).
Turning to `COc1cc2c(NS(=O)(=O)c3c(OC)cc(C4CN(C)CCO4)cc3OC)noc2cc1Nc1cc(C2CC2)n[nH]1` (single isomer, unassigned) [Example 153, N-{6-[(3-cyclopropyl-1 H-pyrazol-5-yl)amino]-5-methoxy-1,2-benzoxazol-3-yl}-2,6-dimethoxy-4-(4-methylmorpholin-2-yl)benzene-1-sulfonamide], the Ki on KAT5 Full length enzyme was 17.4 nM; in assay [1] (setting [2]), 5.7 nM; on KAT8 Full length enzyme (setting [3]) it was 571 nM; at KAT6A Full length enzyme (setting [4]), 0.8 nM.
On the same counts, the results for `COc1cc2c(NS(=O)(=O)c3c(OC)cc(C4COCCN4C)cc3OC)noc2cc1Nc1cc(C2CC2)[nH]n1` (single isomer, unassigned) [Example 180, N-{6-[(5-cyclopropyl-1 H-pyrazol-3-yl)amino]-5-methoxy-1,2-benzoxazol-3-yl}-2,6-dimethoxy-4-(4-methylmorpholin-3-yl)benzene-1-sulfonamide] are 94.8 nM, 6.5 nM, 3370 nM and 1.7 nM.
Turning to `COc1cc2c(NS(=O)(=O)c3c(OC)cc(C(C)N4CC(F)C4)cc3OC)noc2cc1Nc1cc(C2CC2)[nH]n1` (single isomer, unassigned) [Example 209, N-{6-[(5-cyclopropyl-1 H-pyrazol-3-yl)amino]-5-methoxy-1,2-benzoxazol-3-yl}-4-[1-(3-fluoroazetidin-1-yl)ethyl]-2,6-dimethoxybenzene-1-sulfonamide], the Ki at KAT5 Full length enzyme worked out at 106 nM; in assay [1] (setting [2]), 7.7 nM; at KAT8 Full length enzyme (setting [3]) it was 2400 nM; at KAT6A Full length enzyme (setting [4]), 1.4 nM.
With `COc1cc2c(NS(=O)(=O)c3cc4c(cc3OC)CCCC4)noc2cc1Nc1cc[nH]n1` [Example 05, 3-Methoxy-N-{5-methoxy-6-[(1H-pyrazol-3-yl)amino]-1,2-benzoxazol-3-yl}-5,6,7,8-tetrahydronaphthalene-2-sulfonamide], the figures for the Ki at KAT5 Full length enzyme, on KAT8 Full length enzyme (setting [3]) and on KAT6A Full length enzyme (setting [4]) were 13.6 nM, 290 nM and 0.5 nM, respectively.
For `COc1cc2c(NS(=O)(=O)c3cc(C)c(C)cc3OC)noc2cc1Nc1cc[nH]n1` [Example 25, 2-methoxy-N-{5-methoxy-6-[(1H-pyrazol-3-yl)amino]-1,2-benzoxazol-3-yl}-4,5-dimethylbenzene-1-sulfonamide], the values for the Ki on KAT5 Full length enzyme, at KAT8 Full length enzyme (setting [3]) and on KAT6A Full length enzyme (setting [4]) were 121 nM, 446 nM and 0.8 nM, respectively.
Regarding `COc1cc2c(NS(=O)(=O)c3c(OC)cc(C(C)(C)OC)cc3OC)noc2cc1Nc1cc(C2CC2)n[nH]1` [Example 271, N-{6-[(3-cyclopropyl-1H-pyrazol-5-yl)amino]-5-methoxy-1,2-benzoxazol-3-yl}-2,6-dimethoxy-4-(2-methoxypropan-2-yl)benzene-1-sulfonamide], the values for the Ki (in assay [1] (read-out: KAT7 JADE1 Ki (nM) (replicate)); at KAT8 Full length enzyme (read-out: KAT8 Ki (nM) (replicate)); on KAT6A Full length enzyme (read-out: KAT6A Ki (nM) (replicate))) were 7 nM, 1010 nM and 1 nM, respectively.
